Measurements from patent publication US20120071493A1, “SUBSTITUTED 8-SULFONYL-2,3,4,5-TETRAHYDRO-1H-GAMMA-CARBOLINES, LIGANDS AND PHARMACEUTICAL COMPOSITION; METHOD FOR THE PRODUCTION AND USE OF SAME” (priority 2009, published 2012).
Structures can show the parent of a compound that is named as a salt.

What was measured:
[1] = molecular target: T1, recombinant human 5-HT6 receptor (Homo sapiens, UniProt P50406); test: Antagonistic activity towards serotonin 5-HT6 receptors, cAMP cell function experiment; format: cell-based; settings: HEK 293 cells expressing recombinant human 5-HT6 receptor; cAMP response to 10 μM serotonin; read-out: IC50, ability to block serotonin 5-HT6 receptors in the setting of cell function experiments
T1 construct: host or cells: HEK 293 cells with tetracycline-induced T-Rex system (Invitrogen)
Procedure: Determination of antagonistic activity of substituted 8-sulfonyl-2,3,4,5-tetrahydro-1H-γ-carbolines of the general formula 1 towards serotonin 5-HT6 receptors. HEK 293 cells with tetracycline-induced T-Rex system (Invitrogen, USA) consistently expressing recombinant human 5-HT6 receptor, production of Etogen Scientific (USA), were used. The cells were grown in DMEM/10% FBS/1% AAS medium with Blasticidine S and Zeocin (both—Invitrogen, USA). According to the method worked up by the producer of T-Rex system tetracycline hydrochloride was added to the medium with the cells for the purpose of activation of 5-HT6 receptor expression. The cells were embedded in 96-well plates (30,000-40,000 cells per well) and incubated in 5%-CO2 incubator at 37° C. for 24 hs. Before experiments cells medium was replaced by Hank's balanced salt solution (HBSS), comprising 0.137 M NaCl, 5.4 mM KCl, 0.25 mM Na2HPO4, 0.44 mM KH2PO4, 1.3 mM CaCl2, 1.0 mM MgSO4, 5 mM HEPES (pH 7.4), 0.05% BSA and 1 mM IBMX. The tested compounds of general formula 1 were added to the cells in various concentrations. After incubation of the cells for 15 min at room temperature serotonin was added to them up to final concentration of 10 μM and incubation was continued for 30 min. The newly formed cAMP was determined by reagent kit LANCE cAMP Kit, according to the method described by the kit manufacturer […] (PerkinElmer, CIIIA). […] The data given testify that novel γ-carbolines of the general formula 1 are effective serotonin 5-HT6 receptor antagonists. Some of γ-carbolines of the general formula 1 have IC50<0.5 μM in the setting of cell function experiments (IC50—antagonist concentration blocking 5-HT6 receptors for 50%).

male mice of BALB/c line = test: Mice Behavior in the Elevated Plus Maze test; format: in vivo
Procedure: The experiments were carried out in aged male mice of BALB/c line weighing about 25 g. Animals were housed 5-7 per cage with water and food available. None of animals was acquainted with experimental set-up before. Each experimental group included 8 animals.
The procedure used was described earlier by Lister (Lister R. G. The use of a plus-maze to measure anxiety in the mouse. Psychopharmacology, 1987; 92:180-185). Plexiglass set-up consisted of two opened arms of 30×5 cm size and two closed arms of 30×5×15 cm size was used. Side arms were closed with transparent plexiglass and were connected with central zone via platform of 5×5 cm size. Opened arms, central platform and floor were made of black plexiglass. The set-up was mounted on a metallic base which was placed 38.5 cm above floor level.
Animals were injected intraperitoneally with placebo, Buspirone (5 mg/kg, 30 minutes before training), Lorazepam (0.05 mg/kg, 60 minutes before training) or with one of the compounds of the general formula 1, for example, compound 1.1.1(4).HCl or compound 1.2.1(3).HCl in doses 0.05 mg/kg and 0.2 mg/kg. Buspirone and Lorazepam were introduced in maximal effective dose, at which side sedative effect and general decrease of exploratory activity (number of arm entries during the test) were not observed yet.
Each mouse was placed in maze center with its head towards the opened arm. Over a period of 5 minutes the sequence and duration of arm entries were registered by means of computer program. Criterion for entry is location of all animal's paws inside the arm at the same time. Index of preference was calculated as ratio of the time spent by animal in opened arms as well as the number of entries into opened arms to the total time spent by it in opened and closed arms or, respectively, to the whole number of entries to arms of both types. The number of defecations left by mouse was regarded as additional parameter characterizing anxiety state.

male mice of SHK line = test: Novel Object Recognition test, Scopolamine-disturbed recognition; format: in vivo; settings: Scopolamine 1 mg/kg
Procedure: The test was carried out in aged male mice of SHK line. Plexiglass plus maze, consisted of 4 dead-end chambers (numbered 1, 2, 3, 4), joined together through the fifth central chamber, was used in experiments. Mouse was placed into central chamber and allowed to explore the maze. Floor was cleaned after each animal. The sequence of chamber entries and duration of visits were registered by observer. Test was ended after 13 entries into dead-end chambers. Criterion for entry was location of all animal's paws inside the chamber at the same time.
During the training an animal was placed in the maze with one equiform bowl in each side chamber. In the course of testing (one hour after training) two opposite standing bowls were replaced by identical flasks, and animal was allowed to explore the maze. The time spent by animal in each side chamber was registered during the periods of training and testing. Index of novel object recognition was calculated as ratio of time spent by animal in side chambers with novel objects to the total time spent by it in all side chambers. In comparison with the training phase the appearance of novel object extends the time spent by animal in the chamber with novel object (so-called effect of novel object recognition). The recognition of novel objects was disturbed under action of Scopolamine administered in 1 mg/kg dose intraperitoneally 30 minutes before training, and recognition index was decreased.

T1 sequence (P50406 whole entry): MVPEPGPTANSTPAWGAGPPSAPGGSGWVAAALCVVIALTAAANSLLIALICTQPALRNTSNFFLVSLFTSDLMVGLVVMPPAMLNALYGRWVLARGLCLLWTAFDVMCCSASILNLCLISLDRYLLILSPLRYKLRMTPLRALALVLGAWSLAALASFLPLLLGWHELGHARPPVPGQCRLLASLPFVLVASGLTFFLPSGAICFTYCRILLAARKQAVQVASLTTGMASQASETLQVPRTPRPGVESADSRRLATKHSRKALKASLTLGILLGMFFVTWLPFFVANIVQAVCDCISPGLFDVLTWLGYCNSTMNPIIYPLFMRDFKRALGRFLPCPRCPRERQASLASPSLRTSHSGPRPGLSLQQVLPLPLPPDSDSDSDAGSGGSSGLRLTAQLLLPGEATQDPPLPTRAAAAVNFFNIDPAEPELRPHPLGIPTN

| Compound | IC50 [1] [µM] | other results |
| --- | --- | --- |
| CN1CCc2[nH]c3ccc(S(=O)(=O)c4cccnc4)cc3c2C1 [1.1(1)•2HCl] | 0.085 | – |
| CN1CCc2[nH]c3ccc(S(=O)(=O)c4ccncc4)cc3c2C1 [1.1(2)•2HCl] | 6.9 | – |
| Cc1ccc(S(=O)(=O)n2c3c(c4cc(S(=O)(=O)c5ccccc5)ccc42)CN(C)CC3)cc1 [1.1(10)•HCl, 2-Methyl-5-(4-methylphenylsulfonyl)-8-(phenylsulfonyl)-2,3,4,5-tetrahydro-1H-γ-caboline hydrochloride] | ~10 | – |
| CN1CCc2c(c3cc(S(=O)(=O)c4ccccc4)ccc3n2CCc2ccccn2)C1 [1.1(16)•2HCl] | 0.615 | – |
| CN1CCc2[nH]c3ccc(S(=O)(=O)c4cccc(F)c4)cc3c2C1 [1.1.1(3)•HCl] | 0.085 | – |
| CN1CCc2[nH]c3ccc(S(=O)(=O)N(C)C)cc3c2C1 [1.2(1), N,N,2-Trimethyl-2,3,4,5-tetrahydro-1H-γ-carboline-8-sulfonamide] | ~10 | – |
| O=S(=O)(Nc1cccc(F)c1)c1ccc2[nH]c3c(c2c1)CN(Cc1ccccc1)CC3 [1.2(6)•HCl] | 0.022 | – |
| CN1CCN(S(=O)(=O)c2ccc3[nH]c4c(c3c2)CN(C)CC4)CC1 [1.2(10)] | 62 | – |
| O=C1CC2(CCCC2)CC(=O)N1CCCCN1CCN(c2ncccn2)CC1 [Buspirone, reference compound] | – | anxiolytic effect in elevated plus maze (male mice of BALB/c line; 5 mg/kg intraperitoneally, 30 minutes before training): well-marked anxiolytic effect |
| Cc1ccc2c(c1)c1c(n2CCc2ccc(C)nc2)CCN(C)C1 [Dimebon, reference compound] | – | prevention of Scopolamine influence on novel object recognition (male mice of SHK line; 0.1 mg/kg intraperitoneally 5 minutes before training): could be prevented |
| O=C1Nc2ccc(Cl)cc2C(c2ccccc2Cl)=NC1O (stereo not drawn) [Lorazepam, reference compound] | – | anxiolytic effect in elevated plus maze (male mice of BALB/c line; 0.05 mg/kg intraperitoneally, 60 minutes before training): well-marked anxiolytic effect |
| Nc1c2c(nc3ccccc13)CCCC2 [Tacrine, reference compound] | – | prevention of Scopolamine influence on novel object recognition (male mice of SHK line; 10 mg/kg intraperitoneally 30 minutes before training): could be prevented |
